Test results: patent publication US11713470B2, “Targeted gene therapies for pain and other neuro-related disorders” (University of Pittsburgh—Of the Commonwealth System of …, priority 2017, dated 2023)
Entries after “also recorded” stand apart in the source; their conditions may differ.

Key:
Format in all cases: in vivo, mouse
[1] = target: T1, PSAM4 in dorsal horn CCK+ neurons (Homo sapiens, UniProt P23415+P36544, L131G/Q139L/Y217F); experiment: Sural-SNI-induced mechanical allodynia in mice expressing mCCK-PSAM4 in the dorsal horn; settings: 0.3 mpk i.p., 7 days after sural-SNI
T1 sequence (P36544+P23415 fused P36544:L131G/P36544:Q139L/P36544:Y217F): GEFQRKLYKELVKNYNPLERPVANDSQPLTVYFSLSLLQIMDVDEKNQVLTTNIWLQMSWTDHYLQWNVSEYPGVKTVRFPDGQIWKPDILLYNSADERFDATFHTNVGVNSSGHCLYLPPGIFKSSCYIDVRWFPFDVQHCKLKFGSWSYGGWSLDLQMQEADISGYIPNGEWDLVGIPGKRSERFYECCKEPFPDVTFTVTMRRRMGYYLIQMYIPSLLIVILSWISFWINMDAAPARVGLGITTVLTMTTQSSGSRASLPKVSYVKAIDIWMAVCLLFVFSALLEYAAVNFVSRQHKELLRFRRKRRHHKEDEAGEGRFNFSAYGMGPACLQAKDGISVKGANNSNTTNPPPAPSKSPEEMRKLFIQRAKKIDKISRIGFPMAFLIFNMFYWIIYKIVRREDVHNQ
Method: (§1) The mouse cholecystokinin (CCK) promoter with an added chimeric intron to drive expression of α7^L131G, Q139L, Y217F GlyR (PSAM4) was packaged into AAV2/8 and injected into the dorsal horn of 3-week-old wildtype C57Bl/6 male and female mice. Injection of AAV into the dorsal horn was performed as described previously (Peirs, C. et al. Dorsal Horn Circuits for Persistent Mechanical Pain. Neuron 87, 797-812 (2015)). See FIG. 11 for a schematic of the plasmid used to produce these rAAV particles. Briefly, a 2.5 kb fragment of the mouse CCK promoter was subcloned upstream of the PSAM4 gene with the chimeric intron (135 bp) located in between. […]

mice lacking PSAM4 = experiment: Mechanical and heat sensitivity at baseline and after CFA or sural-SNI in wildtype C57Bl/6 mice lacking PSAM4; settings: 0.1 mpk i.p.
Method: (§2) Mechanical and heat hypersensitivity was tested in adult wildtype male and female C57Bl/6 mice (not injected with mCCK-PSAM4 virus) before and after intraperitoneal injection of (i.p) varenicline (0.1 milligram per kilogram (mpk) (FIG. 13). We also tested these parameters before and 2-5 days after induction of the complete Freund's adjuvant (CFA)-model of inflammatory pain and 7 days after induction of the sural version of the spared nerve injury (SNI) model of neuropathic pain (FIG. 13). Sensitivity to mechanical stimuli was tested by measuring the paw withdrawal threshold to von Frey filaments (PWT) and the paw withdrawal response to a cotton swab (percentage of response) as described previously (Peirs, C. et al. Dorsal Horn Circuits for Persistent Mechanical Pain. Neuron 87, 797-812 (2015)). Heat sensitivity was tested by measuring the withdrawal latency to a radiant heat source using the Hargreaves apparatus (PWL) as described previously (Peirs, C. et al. Dorsal Horn Circuits for Persistent Mechanical Pain. Neuron 87, 797-812 (2015)).

[2] = target: T1, PSAM4 in dorsal horn CCK+ neurons; experiment: CFA-induced mechanical allodynia in mice expressing mCCK-PSAM4 in the dorsal horn; settings: 0.3 mpk i.p., 3 days after CFA
Method: as §1

[3] = target: T1, PSAM4 in dorsal horn CCK+ neurons; experiment: Baseline mechanical and heat sensitivity in mice injected with AAV8 mCCK-PSAM4 virus; settings: 0.3 mpk i.p., 2 weeks after AAV8 mCCK-PSAM4, 30-60 minutes after drug
Method: The mouse cholecystokinin (CCK) promoter with an added chimeric intron to drive expression of α7^L131G, Q139L, Y217F GlyR (PSAM4) was packaged into AAV2/8 and injected into the dorsal horn of 3-week-old wildtype C57Bl/6 male and female mice. Injection of AAV into the dorsal horn was performed as described previously (Peirs, C. et al. Dorsal Horn Circuits for Persistent Mechanical Pain. Neuron 87, 797-812 (2015)). See FIG. 11 for a schematic of the plasmid used to produce these rAAV particles. Briefly, a 2.5 kb fragment of the mouse CCK promoter was subcloned upstream of the PSAM4 gene with the chimeric intron (135 bp) located in between.
as §2
Mice were injected unilaterally in the dorsal horn with AAV8 mCCK-PSAM4 virus and tested two weeks later. […] The ipsilateral plantar hindpaw of the mice was injected with CFA and PWTs and response frequencies tested 3 days later in the absence and presence of varenicline (0.3 mpk, i.p.).

[4] = uninjured mice without PSAM4, 30-60 minutes after injection

## c1cnc2cc3c(cc2n1)[C@@H]1CNC[C@H]3C1 [varenicline]
[1]
  PWT to von Frey filaments after sural-SNI: markedly reversed
Mice lacking PSAM4; mice without PSAM4, 2 days after CFA
  heat hypersensitivity after CFA: no effect
Mice lacking PSAM4; mice without PSAM4, 3 days after CFA
  mechanical hypersensitivity after CFA: no effect
Mice lacking PSAM4; mice without PSAM4, 7 days after sural-SNI
  mechanical or heat hypersensitivity after sural-SNI: no effect
Mice lacking PSAM4; [4]
  baseline PWL (withdrawal latency, Hargreaves): no effect
  baseline PWT (paw withdrawal threshold to von Frey filaments): no effect
  baseline response frequency to cotton swab: no effect
[2]
  PWT to von Frey filaments after CFA: markedly reversed
  response frequency to cotton swab after CFA: markedly reversed
[3]
  baseline PWL: no effect; also recorded: did not alter
  baseline PWT: no effect; also recorded: did not alter
  baseline percentage response (response frequency to cotton swab): no effect; also recorded: did not alter
